Experimental data from patent publication US20240131167A1, “EGFR Degraders and Associated Methods of Use” (BeiGene Switzerland GmbH, priority 2021, published 2024).

Key:
[1] = target: T1, EGFR (L858R/T790M/C797S) in BaF3-LTC cells (Homo sapiens, UniProt P00533, C797S/L858R/T790M); experiment: Cell degradation of EGFR, HTRF assay, BaF3-LTC cells; type: cell-based; details: 16 h treatment; for DC50: HTRF; for Dmax: maximum percentage of inhibition (degradation)
T1 construct: expressed in transfected cells; host or cells: BaF3-LTC
Description: (§1) BaF3-LTC (L858R/T790M/C797S) cells are treated with compounds diluted in 0.2% DMSO cell culture medium and incubate for 16 h, 37° C., 5% CO2. H1975-#28 cells are treated with compounds diluted in 0.2% DMSO cell culture medium on day 2, incubate for 16 h, 37° C., 5% CO2, the final concentration of compounds in all assay is start with 10 uM, 4-fold dilution, total 8 doses were included.
(§2) After 16 h treatment, add HTRF lysis buffer to each well; seal the plate and incubate 1 hour at room temperature on a plate shaker. Once the cells are lysed, 16 μL of cell lysate are transferred to a PE 384-well HTRF detection plate: 4 μL of pre-mixed HTRF antibodies are added to each well; Cover the plate with a plate sealer, spin 1000 rpm for 1 min, Incubate overnight at room temperature; Read on BMG PheraStar with HTRF protocol (337 nm-665 nm-620 nm).
(§3) The inhibition (degradation) percentage of the compound was calculated by the following equation: […]
(§4) The IC50 (DC50) value of a compound can be obtained by fitting the following equation
(§5) Y=Bottom+(TOP−Bottom)/(1+((IC50/X)^hillslope))
(§6) Wherein, X and Y are known values, and IC50. Hillslope, Top and Bottom are the parameters obtained by fitting with software. Y is the inhibition percentage (calculated from the equation), X is the concentration of the compound; IC50 is the concentration of the compound when the 50% inhibition is reached. The smaller the IC50 value is, the stronger the inhibitory ability of the compound is. Vice versa, the higher the IC50 value is, the weaker the ability the inhibitory ability of the compound is; Hillslope represents the slope of the fitted curve, generally around 1*; Bottom represents the minimum value of the curve obtained by data fitting, which is generally 0%±20%. Top represents the maximum value of the curve obtained by data fitting, which is generally 100%±20%. The experimental data were fitted by calculating and analyzing with Dotmatics data analysis software.

[2] = tested on: EGFR (Del19/T790M/C797S) in H1975-clone #28 cells; experiment: Cell degradation of EGFR, HTRF assay, H1975-clone #28 cells; type: cell-based; details: H1975-clone #28 (Del19/T790M/C797S, homozygous), 16 h treatment; for DC50: HTRF; for Dmax H1975 #28: maximum percentage of inhibition (degradation)
Description: as §1, §2, §3, §4, §5, §6

T1 sequence (P00533 25-1210 T790M/C797S/L858R): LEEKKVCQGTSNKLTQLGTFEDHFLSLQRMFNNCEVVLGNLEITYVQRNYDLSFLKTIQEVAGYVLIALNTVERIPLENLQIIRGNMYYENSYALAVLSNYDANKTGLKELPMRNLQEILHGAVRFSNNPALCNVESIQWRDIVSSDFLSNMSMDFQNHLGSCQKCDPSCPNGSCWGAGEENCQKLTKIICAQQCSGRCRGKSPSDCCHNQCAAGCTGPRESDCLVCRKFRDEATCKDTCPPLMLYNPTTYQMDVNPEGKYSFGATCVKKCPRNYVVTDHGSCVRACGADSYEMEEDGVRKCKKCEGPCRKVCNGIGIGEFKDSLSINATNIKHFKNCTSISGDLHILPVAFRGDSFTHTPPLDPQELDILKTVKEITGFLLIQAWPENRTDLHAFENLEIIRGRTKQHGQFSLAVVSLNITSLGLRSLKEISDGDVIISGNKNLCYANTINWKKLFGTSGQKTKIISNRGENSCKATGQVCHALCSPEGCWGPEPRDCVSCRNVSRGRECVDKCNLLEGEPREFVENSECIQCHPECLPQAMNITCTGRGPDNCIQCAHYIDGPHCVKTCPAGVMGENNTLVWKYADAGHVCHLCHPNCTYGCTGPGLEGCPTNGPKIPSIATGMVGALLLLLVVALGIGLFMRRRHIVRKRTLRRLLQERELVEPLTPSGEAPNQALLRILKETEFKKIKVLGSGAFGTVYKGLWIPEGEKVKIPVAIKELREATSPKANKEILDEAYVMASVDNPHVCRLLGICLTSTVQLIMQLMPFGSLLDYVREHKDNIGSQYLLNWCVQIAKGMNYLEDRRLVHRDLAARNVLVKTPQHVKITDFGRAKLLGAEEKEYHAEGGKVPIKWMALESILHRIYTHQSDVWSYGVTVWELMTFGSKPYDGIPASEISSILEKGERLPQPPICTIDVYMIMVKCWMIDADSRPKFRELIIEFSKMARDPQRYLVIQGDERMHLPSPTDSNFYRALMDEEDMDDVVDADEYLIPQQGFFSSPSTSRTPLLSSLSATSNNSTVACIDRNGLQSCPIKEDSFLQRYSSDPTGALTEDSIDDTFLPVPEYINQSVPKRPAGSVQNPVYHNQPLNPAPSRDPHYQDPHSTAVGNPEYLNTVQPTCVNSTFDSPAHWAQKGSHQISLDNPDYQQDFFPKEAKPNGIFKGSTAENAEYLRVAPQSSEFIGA

DC50 [1] | Dmax [1] | DC50 [2] | Compound | Dmax H1975 #28 [2]
7.52 nM | 89.9% | 0.66 nM | CCc1cc(Nc2ncc(Br)c(Nc3ccc4nc(C)ccc4c3P3(=O)CCCC3)n2)c(OC)cc1N1CCC(N2CCN(CCc3cccc4c3C(C)(C)C(=O)N4C3CCC(=O)NC3=O)CC2)CC1 (stereo not shown) [Example 73, 3-(4-(2-(4-(1-(4-((5-bromo-4-((2-methyl-5-(1-oxidophospholan-1-yl)quinolin-6-yl)amino)pyrimidin-2-yl)amino)-2-ethyl-5-methoxyphenyl)piperidin-4-yl)piperazin-1-yl)ethyl)-3,3-dimethyl-2-oxoindolin-1-yl)piperidine-2,6-dione] | 78.13%
1.82 nM | 91.8% | 0.77 nM | CCc1cc(Nc2ncc(Br)c(Nc3ccc4nc(C)ccc4c3P3(=O)CC=CC3)n2)c(OC)cc1N1CCC(N2CCN(CCc3ccc4c(c3)oc(=O)n4C3CCC(=O)NC3=O)CC2)CC1 (stereo not shown) [Example 145, 3-(6-(2-(4-(1-(4-((5-bromo-4-((2-methyl-5-(1-oxido-2,5-dihydrophosphol-1-yl)quinolin-6-yl)amino)pyrimidin-2-yl)amino)-2-ethyl-5-methoxyphenyl)piperidin-4-yl)piperazin-1-yl)ethyl)-2-oxobenzo[d]oxazol-3(2H)-yl)piperidine-2,6-dione] | 75.97%
75.1 nM | 86.6% | 3.15 nM | CCc1cc(Nc2ncc(Br)c(Nc3ccccc3P3(=O)CCCC3)n2)c(OC)cc1N1CCC(N2CCN(CCc3cc(F)c(C4CCC(=O)NC4=O)c(F)c3)CC2)CC1 (stereo not shown) [Example 147, 3-(4-(2-(4-(1-(4-((5-bromo-4-((2-(1-oxidophospholan-1-yl)phenyl)amino)pyrimidin-2-yl)amino)-2-ethyl-5-methoxyphenyl)piperidin-4-yl)piperazin-1-yl)ethyl)-2,6-difluorophenyl)piperidine-2,6-dione] | 82.21%

Further lines, the compound ahead of its results:

Compound | DC50 [1] | Dmax [1] | DC50 [2] | Dmax H1975 #28 [2]
CCc1cc(Nc2ncc(Br)c(Nc3ccc4nc(C)ccc4c3P3(=O)CCCC3)n2)c(OC)cc1N1CCC(N2CCN(CCc3cccc4c3n(C)c(=O)n4C3CCC(=O)NC3=O)CC2)CC1 (stereo not shown) [Example 68, 3-(4-(2-(4-(1-(4-((5-bromo-4-((2-methyl-5-(1-oxidophospholan-1-yl)quinolin-6-yl)amino)pyrimidin-2-yl)amino)-2-ethyl-5-methoxyphenyl)piperidin-4-yl)piperazin-1-yl)ethyl)-3-methyl-2-oxo-2,3-dihydro-1H-benzo[d]imidazol-1-yl)piperidine-2,6-dione] | 3.46 nM | 90.8% | 1.34 nM | 85.88%
CCc1cc(Nc2ncc(Br)c(Nc3ccc4nc(C)ccc4c3P3(=O)CCCC3)n2)c(OC)cc1N1CCC(N2CCN(CCc3ccc4c(c3)oc(=O)n4C3CCC(=O)NC3=O)CC2)CC1 (stereo not shown) [Example 71, 3-(6-(2-(4-(1-(4-((5-bromo-4-((2-methyl-5-(1-oxidophospholan-1-yl)quinolin-6-yl)amino)pyrimidin-2-yl)amino)-2-ethyl-5-methoxyphenyl)piperidin-4-yl)piperazin-1-yl)ethyl)-2-oxobenzo[d]oxazol-3(2H)-yl)piperidine-2,6-dione] | 2.51 nM | 88.6% | 1.38 nM | 72.97%
CCc1cc(Nc2ncc(Br)c(Nc3ccccc3P3(=O)CCCC3)n2)c(OC)cc1N1CCC(N2CCN(C(=O)[C@@H]3CCN(c4cc(F)c(C5CCC(=O)NC5=O)c(F)c4)C3)CC2)CC1 (stereo partly drawn) [Example 111, 3-(4-((R)-3-(4-(1-(4-((5-bromo-4-((2-(1-oxidophospholan-1-yl)phenyl)amino)pyrimidin-2-yl)amino)-2-ethyl-5-methoxyphenyl)piperidin-4-yl)piperazine-1-carbonyl)pyrrolidin-1-yl)-2,6-difluorophenyl)piperidine-2,6-dione] | 26.8 nM | 90.3% | 4.31 nM | 87.16%
CCc1cc(Nc2ncc(Br)c(Nc3ccccc3P3(=O)CCCC3)n2)c(OC)cc1N1CCC(N2CCN(C(=O)C3CN(c4cc(F)c(C5CCC(=O)NC5=O)c(F)c4)C3)CC2)CC1 (stereo not shown) [Example 148, 3-(4-(3-(4-(1-(4-((5-bromo-4-((2-(1-oxidophospholan-1-yl)phenyl)amino)pyrimidin-2-yl)amino)-2-ethyl-5-methoxyphenyl)piperidin-4-yl)piperazine-1-carbonyl)azetidin-1-yl)-2,6-difluorophenyl)piperidine-2,6-dione] | 19.8 nM | 90.2% | 2.99 nM | 78.19%
